Source: patent US8933074B2, “1,2-disubstituted heterocyclic compounds” (FORUM Pharmaceuticals Inc., priority 2008, dated 2015)

Target: Human PDE10A1 (Homo sapiens, UniProt Q9Y233)
Experiment: hPDE10A1 enzyme inhibition
Assay type: biochemical
Settings: [3H]-cAMP substrate, 20 minutes at 37° C.; read-out: hPDE10A1 IC50 Band
Description: 50 μl samples of serially diluted Human PDE10A1 enzyme were incubated with 50 μl of [^3H]-cAMP for 20 minutes (at 37° C.). Reactions were carried out in Greiner 96 deep well 1 ml master-block. The enzyme was diluted in 20 mM Tris HCl pH7.4 and [^3H]-cAMP was diluted in 10 mM MgCl2, 40 mM Tris.HCl pH 7.4. The reaction was terminated by denaturing the PDE enzyme (at 70° C.) after which [^3H]-5′-AMP was converted to [^3H]-adenosine by adding 25 μl snake venom nucleotidase and incubating for 10 minutes (at 37° C.). Adenosine, being neutral, was separated from charged cAMP or AMP by the addition of 200 μl Dowex resin. Samples were shaken for 20 minutes then centrifuged for 3 minutes at 2,500 r.p.m. 50 μl of supernatant was removed and added to 200 μl of MicroScint-20 in white plates (Greiner 96-well Optiplate) and shaken for 30 minutes before reading on Perkin Elmer TopCount Scintillation Counter.
To check inhibition profile 11 μl of serially diluted inhibitor was added to 50 μl of [^3H]-cAMP and 50 ul of diluted Human PDE10A1 and assay was carried out as in the enzyme activity assay. Data was analysed using Prism software (GraphPad Inc).

Sequence of Human PDE10A1 (Q9Y233 1-779 isoform Q9Y233-1): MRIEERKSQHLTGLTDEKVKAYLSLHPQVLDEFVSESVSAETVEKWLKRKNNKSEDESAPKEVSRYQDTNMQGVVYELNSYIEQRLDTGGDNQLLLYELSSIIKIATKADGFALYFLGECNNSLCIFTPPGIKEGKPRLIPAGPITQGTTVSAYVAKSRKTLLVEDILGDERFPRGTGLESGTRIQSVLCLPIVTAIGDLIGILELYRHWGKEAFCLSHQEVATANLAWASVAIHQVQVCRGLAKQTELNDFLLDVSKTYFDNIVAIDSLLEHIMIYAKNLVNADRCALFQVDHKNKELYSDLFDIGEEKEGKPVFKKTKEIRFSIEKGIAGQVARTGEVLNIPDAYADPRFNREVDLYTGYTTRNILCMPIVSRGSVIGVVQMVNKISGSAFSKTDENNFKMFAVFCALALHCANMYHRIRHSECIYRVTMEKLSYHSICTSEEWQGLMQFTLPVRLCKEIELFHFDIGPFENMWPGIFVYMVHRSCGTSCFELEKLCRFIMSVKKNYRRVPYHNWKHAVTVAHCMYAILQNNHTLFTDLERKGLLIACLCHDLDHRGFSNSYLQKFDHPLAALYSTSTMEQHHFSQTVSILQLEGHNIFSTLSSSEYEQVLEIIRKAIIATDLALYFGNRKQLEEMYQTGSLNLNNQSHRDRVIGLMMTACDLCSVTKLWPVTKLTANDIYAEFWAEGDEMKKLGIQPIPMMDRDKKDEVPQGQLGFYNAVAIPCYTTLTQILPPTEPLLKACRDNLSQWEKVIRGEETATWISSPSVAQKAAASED

SMILES	IC50 [nM]
CN1C(=O)C(c2ccncc2)=C(c2ccc(OCc3ccc4ccccc4n3)cc2)C1=O [Example 11, 1-methyl-3-(pyridin-4-yl)-4-(4-(quinolin-2-ylmethoxy)phenyl)-1H-pyrrole-2,5-dione]	> 50
CC1(C)OC(=O)C(c2ccc(OCc3ccc4ccccc4n3)cc2)=C1c1ccncc1 [Example 23, 5,5-dimethyl-4-(pyridin-4-yl)-3-(4-(quinolin-2-ylmethoxy)phenyl)furan-2(5H)-one]	≤ 50
O=C1OC2(CC2)C(c2ccncc2)=C1c1ccc(OCc2ccc3ccccc3n2)cc1 [Example 26, 7-(Pyridin-4-yl)-6-(4-(quinolin-2-ylmethoxy)phenyl)-4-oxaspiro[2.4]hept-6-en-5-one]	> 50
COc1ccc(C2=C(c3ccc(OCc4ccc5ccccc5n4)cc3)C(=O)OC2(C)C)cc1 [Example 33, 4-(4-methoxyphenyl)-5,5-dimethyl-3-(4-(quinolin-2-ylmethoxy)phenyl)furan-2(5H)-one]	≤ 50
COc1ccc(C2=C(c3ccc(OCc4ccc5ccccc5n4)cc3)C(=O)N(C)C2(C)C)cc1 [Example 73, 4-(4-methoxyphenyl)-1,5,5-trimethyl-3-(4-(quinolin-2-ylmethoxy)phenyl)-1H-pyrrol-2(5H)-one]	> 50
COc1ccc(C2=C(c3ccc(OCc4ccc5ccccc5n4)cc3)C(=O)OC23CC3)cc1 [Example 126, 7-(4-methoxyphenyl)-6-(4-(quinolin-2-ylmethoxy)phenyl)-4-oxaspiro[2.4]hept-6-en-5-one]	≤ 50
CC1(C)OC(c2ccncn2)=C(c2ccc(OCc3ccc4ccccc4n3)cc2)C1=O [Example 127, 2,2-dimethyl-5-(pyrimidin-4-yl)-4-(4-(quinolin-2-ylmethoxy)phenyl)furan-3(2H)-one]	> 50
CC1(C)OC(c2ccnc(O)c2)=C(c2ccc(OCc3ccc4ccccc4n3)cc2)C1=O [Example 130, 5-(2-hydroxypyridin-4-yl)-2,2-dimethyl-4-(4-(quinolin-2-ylmethoxy)phenyl)furan-3(2H)-one]	≤ 50
COc1cc(C2=C(c3ccc(OCc4ccc5ccccc5n4)cc3)C(=O)C(C)(C)O2)ccn1 [Example 131, 5-(2-methoxypyridin-4-yl)-2,2-dimethyl-4-(4-(quinolin-2-ylmethoxy)phenyl)furan-3(2H)-one]	≤ 50
COc1ccc(C2=C(c3ccc(OCc4ccc5ccccc5n4)cc3)C(=O)C(C)(C)O2)cc1 [Example 138, 5-(4-Methoxyphenyl)-2,2-dimethyl-4-(4-(quinolin-2-ylmethoxy)phenyl) furan-3(2H)-one]	≤ 50
CC1(C)OC(c2ccc(Cl)cc2)=C(c2ccc(OCc3ccc4ccccc4n3)cc2)C1=O [Example 147, 5-(4-Chlorophenyl)-2,2-dimethyl-4-(4-(quinolin-2-ylmethoxy)phenyl) furan-3(2H)-one]	≤ 50
CC1(C)OC(c2ccc(C(F)(F)F)cc2)=C(c2ccc(OCc3ccc4ccccc4n3)cc2)C1=O [Example 154, 2,2-dimethyl-4-(4-(quinolin-2-ylmethoxy)phenyl)-5-(4-(trifluoromethyl)phenyl)furan-3(2H)-one]	≤ 50
CC1(C)OC(c2ccc(CC(F)(F)F)cc2)=C(c2ccc(OCc3ccc4ccccc4n3)cc2)C1=O [Example 156, 2,2-dimethyl-4-(4-(quinolin-2-ylmethoxy)phenyl)-5-(4-(2,2,2-trifluoroethyl)phenyl)furan-3(2H)-one]	≤ 50
CCOc1ccc(C2=C(c3ccc(OCc4ccc5ccccc5n4)cc3)C(=O)C(C)(C)O2)cc1 [Example 157, 5-(4-ethoxyphenyl)-2,2-dimethyl-4-(4-(quinolin-2-ylmethoxy)phenyl)furan-3(2H)-one]	≤ 50
CC(C)Oc1ccc(C2=C(c3ccc(OCc4ccc5ccccc5n4)cc3)C(=O)C(C)(C)O2)cc1 [Example 158, 5-(4-isopropoxyphenyl)-2,2-dimethyl-4-(4-(quinolin-2-ylmethoxy)phenyl)furan-3(2H)-one]	> 50
CC1(C)OC(c2ccc(OC(F)F)cc2)=C(c2ccc(OCc3ccc4ccccc4n3)cc2)C1=O [Example 159, 5-(4-(difluoromethoxy)phenyl)-2,2-dimethyl-4-(4-(quinolin-2-ylmethoxy)phenyl)furan-3(2H)-one]	≤ 50
CC1(C)OC(c2ccc(OCC3CC3)cc2)=C(c2ccc(OCc3ccc4ccccc4n3)cc2)C1=O [Example 161, 5-(4-(cyclopropylmethoxy)phenyl)-2,2-dimethyl-4-(4-(quinolin-2-ylmethoxy)phenyl)furan-3(2H)-one]	> 50

More lines, now with the values ahead:

IC50 [nM]	SMILES
≤ 50	CC1(C)NC(=O)C(c2ccc(OCc3ccc4ccccc4n3)cc2)=C1c1ccncc1 [Example 63, 5,5-dimethyl-4-(pyridin-4-yl)-3-(4-(quinolin-2-ylmethoxy)phenyl)-1H-pyrrol-2(5H)-one]
≤ 50	CC1(C)OC(c2ccncc2)=C(c2ccc(OCc3ccc4ccccc4n3)cc2)C1=O [Example 125, 2,2-dimethyl-5-(pyridin-4-yl)-4-(4-(quinolin-2-ylmethoxy)phenyl) furan-3(2H)-one]
≤ 50	CC1(C)OC(c2ccc(O)nc2)=C(c2ccc(OCc3ccc4ccccc4n3)cc2)C1=O [Example 132, 5-(6-hydroxypyridin-3-yl)-2,2-dimethyl-4-(4-(quinolin-2-ylmethoxy)phenyl)furan-3(2H)-one]
≤ 50	COc1ccc(C2=C(c3ccc(OCc4ccc5ccccc5n4)cc3)C(=O)C(C)(C)O2)cn1 [Example 133, 5-(6-methoxypyridin-3-yl)-2,2-dimethyl-4-(4-(quinolin-2-ylmethoxy)phenyl)furan-3(2H)-one]
≤ 50	COc1ccc(C2=C(c3ccc(OCc4ccc5ccccc5n4)cc3)C(=O)C(C)(C)O2)cc1F [Example 134, 5-(3-fluoro-4-methoxyphenyl)-2,2-dimethyl-4-(4-(quinolin-2-ylmethoxy)phenyl)furan-3(2H)-one]
≤ 50	COc1ccc(C2=C(c3ccc(OCc4ccc5ccccc5n4)cc3)C(=O)C(C)(C)O2)cc1Cl [Example 135, 5-(3-Chloro-4-methoxyphenyl)-2,2-dimethyl-4-(4-(quinolin-2-ylmethoxy)phenyl) furan-3(2H)-one]
≤ 50	COc1ccc(C2=C(c3ccc(OCc4ccc5ccccc5n4)cc3)C(=O)C(C)(C)O2)cc1C#N [Example 137, 5-(5,5-Dimethyl-4-oxo-3-(4-(quinolin-2-ylmethoxy)phenyl)-4,5-dihydrofuran-2-yl)-2-methoxybenzonitrile]
≤ 50	CC1(C)OC(c2ccc(C#N)cc2)=C(c2ccc(OCc3ccc4ccccc4n3)cc2)C1=O [Example 141, 4-(5,5-Dimethyl-4-oxo-3-(4-(quinolin-2-ylmethoxy)phenyl)-4,5-dihydrofuran-2-yl)benzonitrile]
≤ 50	CC1(C)OC(c2ccc(F)cc2)=C(c2ccc(OCc3ccc4ccccc4n3)cc2)C1=O [Example 153, 5-(4-fluorophenyl)-2,2-dimethyl-4-(4-(quinolin-2-ylmethoxy)phenyl)furan-3(2H)-one]
≤ 50	CC1(C)OC(c2ccc(OC(F)(F)F)cc2)=C(c2ccc(OCc3ccc4ccccc4n3)cc2)C1=O [Example 155, 2,2-dimethyl-4-(4-(quinolin-2-ylmethoxy)phenyl)-5-(4-(trifluoromethoxy)phenyl)furan-3(2H)-one]
